The record followed here is ChEMBL document CHEMBL5030524, “Discovery of Cyclic Peptidomimetic Ligands Targeting the Extracellular Domain of EGFR” (J Med Chem, 2021).

In general, bioavailability refers to the share of a dose that reaches the circulation, judged against a reference dose that is usually intravenous. In general, inhibition refers to how much of the control response was suppressed. The term Kd denotes the free concentration of one partner at which half of the binding sites on the other are occupied at equilibrium, for simple one-to-one binding. As usually defined, the IC50 is the concentration at which inhibition is half-maximal.

Calls of active or inactive are those of the source. No cut-off for these calls is given here.

Data set [1] is described as follows: Oral bioavailability in human. Type of data set: ADME, organism-based. Conditions: in vivo.
The nature of data set [2]: Selectivity ratio of IC50 for HEK293 cells to IC50 for human A549 cells. Format: toxicity. As to conditions: HEK293 cells versus A549 cells, read-out: Ratio IC50.
The subject of data set [3] is A549. Put plainly: Antiproliferative activity against human serum starved A549 cells assessed as reduction in cell viability at 10 uM after 48 hrs by CCK8 assay relative to control. Format: functional. In general terms: Formazan colour is commonly taken as a measure of viable cells.
For data set [4], the system named is A549. The data set is described as follows: Antimigratory activity against human A549 cells assessed as inhibition of cell migration at 25 uM in presence of EGF by scratch wound healing assay (reference value: 133.9 %). Type of data set: functional. On the set-up: scale not given: the % may be the effect or the level left.
Data set [5] addresses T1, Epidermal growth factor receptor (Homo sapiens, UniProt P00533). The data set is described as follows: Inhibition of EGFR in human A549 cells assessed as reduction in EGF-induced ERK phosphorylation measured after 4 hrs by Western blot analysis. Format: cell-based. (Immunoblotting shows a protein as a band on a membrane.)
The subject of data set [6] is Mus musculus. The data set is described as follows: In vivo inhibition of EGFR in athymic nude Ncr/nu mouse xenografted with human A549 cell assessed as reduction in phosphorylated ERK expression at 50 mg/kg, ip administered every 2 days for 7 times measured after 6 days by immunohistochemical staining based analysis. Format: functional, organism-based. As to conditions: time 6.0 day. (In general: In xenograft studies the graft and the host belong to different species.)

The target of data set [7] is T1, Epidermal growth factor receptor. Put plainly: Inhibition of […] EGFR phosphorylation in human A549 cells at 25 uM pretreated for 4 hr followed by EGF stimulation by Western blot analysis relative to control. Format: cell-based.
For data set [8], the system named is Mus musculus. The data set is described as follows: In vivo inhibition of EGFR in athymic nude Ncr/nu mouse xenografted with human A549 cell assessed as reduction in phosphorylated EGFR expression at 50 mg/kg, ip administered every 2 days for 7 times measured after 6 days by immunohistochemical staining based analysis. Type of data set: functional, organism-based. As to conditions: time 6.0 day.

For data set [9], the target named is T1, Epidermal growth factor receptor. Put plainly: Inhibition of EGFR in human A549 cells assessed as reduction in EGF-induced Akt phosphorylation measured after 4 hrs by Western blot analysis. Type of data set: cell-based.
Data set [10] has the same target. Put plainly: Binding affinity to EGFR (unknown origin) assessed as dissociation constant by fluorescence polarization assay.
Data set [11] shares this target. Put plainly: Inhibition of […] EGFR phosphorylation in human A549 cells pretreated for 4 hr followed by EGF stimulation by Western blot analysis. Type of data set: cell-based.
Data set [12] relates to A549. The data set is described as follows: Antimigratory activity against human A549 cells assessed as inhibition of cell migration at 25 uM measured after 30 hrs by scratch wound healing assay (reference value: 55.3 %). Also on record: scale not given: the % may be the effect or the level left. Type of data set: functional.
Data set [13] in a line: Toxicity in athymic nude Ncr/nu mouse xenografted with human A549 cells assessed as effect on weight gain at 10 to 50 mg/kg, ip. Format: organism-based. Conditions: in vivo, 144 h, dose 10-50 mg/kg, time 6 day.
Another data set deals with HEK293. The data set is described as follows: Cytotoxicity against HEK293 cells assessed as reduction in cell viability after 48 hrs by CCK8 assay. Type of data set: cell-based. Conditions: Homo sapiens, HEK293, 48 h.
Data set [14] is described as follows: Stability of the compound assessed as pronase (unknown origin)-mediated drug degradation measured after 20 hrs by HPLC analysis. Type of data set: ADME. Conditions: bacteria.
Data set [15] relates to A549. The data set is described as follows: Antitumor activity against human A549 cells xenografted in athymic nude Ncr/nu mouse assessed as suppression of tumor growth at 50 mg/kg, ip administered once every 2 days for seven days. Type of data set: functional, organism-based. Conditions: time 7.0 day.
Data set [16] deals with A549. The data set is described as follows: Antitumor activity against human A549 cells xenografted in athymic nude Ncr/nu mouse assessed as suppression of tumor growth at 10 mg/kg, ip administered once every 2 days for seven times and measured after 6 day. Type of data set: functional, organism-based.
The test system of data set [17] is A549. Put plainly: Antiproliferative activity against human serum starved A549 cells assessed as reduction in cell viability after 48 hrs in presence of EGF by CCK8 assay. Format: functional, cell-based. Conditions: A549, 48 h.

T1 sequence (P00533 whole entry): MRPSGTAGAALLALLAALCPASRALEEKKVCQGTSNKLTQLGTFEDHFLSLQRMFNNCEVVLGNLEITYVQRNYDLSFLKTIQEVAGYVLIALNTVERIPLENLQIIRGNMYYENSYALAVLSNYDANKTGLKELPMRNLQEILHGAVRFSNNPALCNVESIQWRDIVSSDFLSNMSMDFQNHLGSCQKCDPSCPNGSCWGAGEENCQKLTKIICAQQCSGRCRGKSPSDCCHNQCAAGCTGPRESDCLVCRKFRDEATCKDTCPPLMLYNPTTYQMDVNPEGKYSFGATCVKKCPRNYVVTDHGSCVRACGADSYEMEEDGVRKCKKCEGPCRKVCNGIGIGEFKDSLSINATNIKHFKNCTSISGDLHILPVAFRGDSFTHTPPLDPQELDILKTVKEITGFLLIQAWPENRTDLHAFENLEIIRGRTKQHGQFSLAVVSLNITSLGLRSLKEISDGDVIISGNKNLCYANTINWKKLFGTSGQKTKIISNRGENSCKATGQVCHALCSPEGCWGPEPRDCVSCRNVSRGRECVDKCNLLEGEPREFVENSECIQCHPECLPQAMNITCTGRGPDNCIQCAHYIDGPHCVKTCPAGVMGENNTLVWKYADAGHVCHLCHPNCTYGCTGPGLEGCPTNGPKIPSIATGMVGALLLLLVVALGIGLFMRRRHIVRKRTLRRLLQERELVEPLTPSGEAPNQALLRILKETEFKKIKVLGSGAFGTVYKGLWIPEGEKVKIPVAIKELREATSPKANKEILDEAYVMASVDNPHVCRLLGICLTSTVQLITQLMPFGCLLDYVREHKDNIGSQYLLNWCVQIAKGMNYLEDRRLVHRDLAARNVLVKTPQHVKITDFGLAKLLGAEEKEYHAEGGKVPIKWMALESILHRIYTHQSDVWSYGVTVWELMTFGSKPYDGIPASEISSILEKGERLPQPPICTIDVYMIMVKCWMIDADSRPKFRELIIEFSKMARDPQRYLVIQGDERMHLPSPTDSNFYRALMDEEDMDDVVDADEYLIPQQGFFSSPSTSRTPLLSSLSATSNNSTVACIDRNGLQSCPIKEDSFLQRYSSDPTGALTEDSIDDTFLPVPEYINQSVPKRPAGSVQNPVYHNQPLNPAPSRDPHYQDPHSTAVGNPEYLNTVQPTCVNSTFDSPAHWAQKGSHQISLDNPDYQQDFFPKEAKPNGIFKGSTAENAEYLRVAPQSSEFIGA

Take `NC(=O)N1c2ccccc2C=Cc2ccccc21` [CARBAMAZEPINE]: the bioavailability in [1] is > 90%.
As for `COc1cc(CC(=O)N2CC(=O)N[C@@H](Cc3ccccc3)C(=O)N(CC(N)=O)C(=O)CCSCc3ccc(cc3)C(=O)N[C@@H](CCCCN)CN(C(=O)CCC3CCCCC3)CC(=O)N[C@@H](Cc3ccccc3)CN(C(=O)CCc3ccccc3)CC(=O)N[C@@H](Cc3ccccc3)C2)cc(OC)c1`, in data set [2], the selectivity ratio is 8. Also, the Activity in the data set on A549 [3] was 100%; with A549 [4] it was 64.8%; with A549 [12] it was 15.2%; in data set [13] it was “Non-Toxic”. In addition, the inhibition entry is “Dose-Dependent Effect” in data set [5], 100% in [7] and “Dose-Dependent Effect” in data set [9]. Moreover, the inhibition result in the data set with Mus musculus [6] was “inactive”. For the same compound, in the data set with Mus musculus [8], the inhibition result was “Active”. For the same compound, the Kd in [10] is 0.43 µM. The IC50 turned out to be 17.7 µM in data set [11], 62.1 µM in the data set with HEK293 and 8.36 µM with A549 [17]. Also, in [14], the Drug degradation entry is on record as “Stable”. Also, the outcome in the data set on A549 [15] was Active. Besides, the result with A549 [16] was inactive.
As to `CC(C)C[C@H]1CN(C(=O)Cc2ccc3c(c2)OCO3)CC(=O)N[C@@H](Cc2ccccc2)CN(C(=O)CCC2CCCCC2)CC(=O)N[C@@H](Cc2ccccc2)CN(C(=O)Cc2ccc3c(c2)OCO3)CC(=O)N[C@@H](CC(C)C)C(=O)N(CC(N)=O)C(=O)CCSCc2ccc(cc2)C(=O)N1`, the Kd in data set [10] came out at 0.55 µM.
